Tested on: HIV
Test: Testing virostatic activity of adefovir diphosphate 8 in TZM-bl cell culture infected with HIV
Type: cell-based, Human immunodeficiency virus
Description: The subject of testing was the compound of structure formula 8 (adefovir diphosphate) which is a known (Mulato & Cherrington, 1997) active metabolite—the reverse transcriptase inhibitor—in inhibiting the replication of viral DNA of HIV. In determining activity of […], compound 7 (tenofovir), which is a clinically approved drug used for the treatment of HIV, was used as a standard. […] Then the solution of the complex was removed and the infected cells were overlaid with medium with serum and incubated at 37° C. Parallel control experiments were performed (without infection; infection without active substance; 10 μmol·l^−1 tenofovir 7 throughout incubation; compound 8 without a carrier).

Nc1ncnc2c1ncn2CCOCP(=O)(O)OP(=O)(O)OP(=O)(O)O [Compound 8, adefovir diphosphate]
Virostatic activity compared with tenofovir 7 standard (10 μmol·l−1 complex of compound 8 and transporter 6c in buffer A for 10 minutes, three days of incubation, standard 10 μmol·l−1 tenofovir 7 throughout incubation, FIG. 7): identical with the control experiments where a solution of compound 7 was present in the medium throughout the incubation
Activity relative to drug 7, concluded from the shorter time of application (compound 8 applied using the 6c carrier for 10 min vs compound 7 present throughout incubation): more active than the clinically used drug 7
